Measurements as given in article PMC6799938, “Determinants of drug entry into the developing brain” (F1000Research, 2019).
Like-named read-outs stand apart in the source and are kept apart here. One block for each compound: values may come before it.

Tests used:
[1] = for Brain radioactivity level / CSF radioactivity level / Plasma radioactivity level: mean; for Brain/Plasma Ratio / CSF/Plasma Ratio: mean ± SD
Description: Animals. Sprague Dawley rats were supplied by the University of Melbourne Biological Research Facility and housed in groups of 2–4 (adult) or full litters per cage (25cm x 35cm x 25cm on Breeders Choice paper bedding, made from 99% recycled paper; it is biodegradable with no added chemicals), on a 12 h light/dark cycle with ad libitum access to food (dry pellets of a fixed formulation diet for laboratory rats and mice fortified with vitamins and minerals to meet the requirements of breeding animals after the diet is autoclaved or irradiated, supplied by Speciality Feeds, Western Australia) and water. Age groups investigated (at treatment completion) were time mated pregnant females at E19 (350-400g body weight), postnatal pups at P4 and non-pregnant female adults (175-230g body weight). E19 was chosen because this is a stage of development when adequate volumes of blood and CSF can be obtained for analysis from fetal rats without pooling ( [Dziegielewska et al., 1981]) and individual pups can be injected intraperitoneally while still inside the uterine horn and kept viable for periods of time. P4 was chosen because its stage of brain development is similar to that of very prematurely born but viable human infants of 22–24 weeks gestation ( [Clancy et al., 2001]). Animal numbers were based on previous experience of such experiments and were the minimum number required to detect a significant difference between groups at P <0.05.
Drug doses. Drug doses were selected based on use in clinical practice ( [Australian Medicines Handbook, 2019]) and adjusted for body weight.
(§1) Experimental procedure. In acute drug experiments, a single dose was injected that included traces of [ ^3H]-labelled drug (20µCi adults, 2µCi newborns). In chronic experiments, doses of unlabelled drug were given twice daily (09.00 and 17.00h) for four days before a final injection on the 5 ^th day identical to acute experiments. In passive marker experiments, all dosing was acute and contained only the [ ^3H]- or [ ^14C]-labelled compound (20µCi adults, 2µCi newborns).
(§2) In all experiments involving postnatal animals, injections were intraperitoneal (i.p.). In pregnant animals for fetal drug entry studies, the final injection of the radiolabelled marker was given intravenously (i.v.), as the peritoneal cavity required opening prior to the sampling period to gain access to the fetuses. For passive markers (L-glucose, sucrose and glycerol), fetal animals were individually injected i.p. while still within the uterine horn. All experiments took place between 09.00 and 15.00h. All pregnancy studies were completed with a single treatment group on one day. Postnatal groups were conducted with a single treatment group on one day or with the chronic group completed prior to the acute group.
(§3) Sample collection. Samples were collected 30 minutes after the final injection. This duration was chosen partly to limit any potential metabolism of the drugs and markers used but also to allow enough time for i.p. injected markers to reach the blood stream and, from there, to access the brain parenchyma across brain barriers, as well as to limit the CSF sink effect that could influence drug levels ( [Bito et al., 1966]). Thirty minutes is also within the half-life of these drugs ( [Adedoyin et al., 1987]; [Harrison & Gibaldi, 1976]; Lin & Levy, 1963). The other reason a 30-minute duration was chosen is that in the case of exposed fetal rat pups, it is difficult to maintain them in a reasonable physiological state for long periods due to deterioration of placental perfusion. Therefore, for comparative purposes, all studies were conducted at the same time.
For adult and newborn (P4) experiments, animals were terminally anaesthetized using inhaled isofluorane (IsoFlo 100% w/w, Abbott Laboratories).

[2] = Sprague Dawley, rat, in vivo
[3] = test system: abcc1 (MRP1)
[4] = test system: abcc2 (MRP2)
[5] = test system: abcc3 (MRP3)
[6] = test system: abcc4 (MRP4)
[7] = test system: abcc5 (MRP5)
[8] = test system: abcg2 (BCRP)
[9] = test system: abcb1a (PGP)
[10] = test system: abcb1b (PGP)
[11] = Entry of "passive" markers into brain and CSF; conditions: passive marker, all ages (E19, P4, adults), 30 minutes
Description: as §1, §2, §3
For adult and newborn (P4) experiments, animals were terminally anaesthetized using inhaled isofluorane (IsoFlo 100% w/w, Abbott Laboratories). Blood samples were collected from the right cardiac ventricle, CSF from the cisterna magna (Habgood et al., 1992) and cortical segments of brain tissue dorsal to the ventricle of the frontal/parietal lobes, as previously described ( [Koehn et al., 2019]). Blood and CSF sampling from the P4 animals was terminal and would thus not have affected the physiological state of the animals during the experiment.
Sample preparation. Samples were processed immediately after collection. Blood was centrifuged at 7000rpm for five minutes and the plasma separated. CSF samples were examined microscopically for traces of red blood cells and discarded if contaminated (Habgood et al., 1992). In all experiments, the radioactivity in the injectate was also measured to confirm the uniformity of the injected material. All samples were weighed and transferred into scintillation vials. Soluene350 (0.5ml, PerkinElmer) was added to the brain samples. After being incubated at 36°C overnight to allow the tissue to solubilize, two drops of glacial acetic acid (Sigma) were added to neutralize the strongly alkaline Soluene350. All samples were then mixed with 5ml of scintillation fluid (Emulsifier-safe, PerkinElmer) before being transferred into the liquid scintillation counter (Tri-Carb 4910 TR, PerkinElmer) to count radioactivity disintegrations per minute (DPM) over five minutes each with luminescence correction on. Blank vials containing the same tissues without radioactivity were also counted alongside the samples to establish the level of background counts, which were always subtracted from the radioactivity counts of the corresponding experimental samples.
BrainorCSFtransfer=BrainorCSFDPM/μl/plasmaDPM/μl×100%

[12] = Placental transfer at E19 (fetal/maternal plasma concentration ratio); conditions: E19, passive permeability markers, acute; for Fetal/Maternal plasma concentration ratio: mean ± SD
[13] = E19 fetuses, acute, 30 min - […] after administration
[14] = E19 fetuses, acute, listed as cimetidine
[15] = E19 fetuses, chronic (twice daily over five days), 30 min - […] after final dose
[16] = P4, acute, 30 min, listed as cimetidine
[17] = P4, chronic i.p. (twice daily over five days), 30 min after final dose
[18] = adult, acute, 30 min, listed as cimetidine
[19] = adult, chronic i.p. (twice daily over five days), 30 min after final dose
[20] = choroid plexus (lateral ventricular), E19
[21] = choroid plexus (lateral ventricular), P4
[22] = choroid plexus (lateral ventricular), adult

transfer from maternal blood to fetal brain ([1]; E19, acute): 17%
Brain radioactivity level [1, 13]: 7.3 DPM/µg
CSF radioactivity level [1, 13]: 7.0 DPM/µl
Plasma radioactivity level [1, 13]: 13.0 DPM/µl
Brain/Plasma Ratio ([1]; E19 fetuses, acute): 56 ± 10%
CSF/Plasma Ratio ([1]; E19 fetuses, acute): 54 ± 11%
Brain/Plasma Ratio [1, 14]: 56%
CSF/Plasma Ratio [1, 14]: 54%
Brain radioactivity level [1, 15]: 8.8 DPM/µg
CSF radioactivity level [1, 15]: 8.4 DPM/µl
Plasma radioactivity level [1, 15]: 13.3 DPM/µl
Brain/Plasma Ratio ([1]; E19 fetuses, chronic): 65 ± 19%
CSF/Plasma Ratio ([1]; E19 fetuses, chronic): 63 ± 15%
Brain radioactivity level ([1]; P4, acute i.p., 30 min): 37.2 DPM/µg
CSF radioactivity level ([1]; P4, acute i.p., 30 min): 24.3 DPM/µl
Plasma radioactivity level ([1]; P4, acute i.p., 30 min): 310.9 DPM/µl
Brain/Plasma Ratio ([1]; P4, acute, 30 min): 12 ± 1%
CSF/Plasma Ratio ([1]; P4, acute, 30 min): 8 ± 1%
Brain/Plasma Ratio [1, 16]: 12%
CSF/Plasma Ratio [1, 16]: 8%
Brain radioactivity level [1, 17]: 45.7 DPM/µg
CSF radioactivity level [1, 17]: 27.8 DPM/µl
Plasma radioactivity level [1, 17]: 373.2 DPM/µl
Brain/Plasma Ratio ([1]; P4, chronic, 30 min): 12 ± 2%
CSF/Plasma Ratio ([1]; P4, chronic, 30 min): 7 ± 1%
transfer into maternal brain (brain/maternal blood) ([1]; acute): 13%
Brain radioactivity level ([1]; adult, acute i.p., 30 min): 6.2 DPM/µg
CSF radioactivity level ([1]; adult, acute i.p., 30 min): 6.0 DPM/µl
Plasma radioactivity level ([1]; adult, acute i.p., 30 min): 55.9 DPM/µl
Brain/Plasma Ratio ([1]; adult, acute, 30 min): 13 ± 5%
CSF/Plasma Ratio ([1]; adult, acute, 30 min): 12 ± 3%
Brain/Plasma Ratio [1, 18]: 13%
CSF/Plasma Ratio [1, 18]: 12%
Brain radioactivity level [1, 19]: 11.6 DPM/µg
CSF radioactivity level [1, 19]: 11.1 DPM/µl
Plasma radioactivity level [1, 19]: 90.7 DPM/µl
Brain/Plasma Ratio ([1]; adult, chronic, 30 min): 13 ± 1%
CSF/Plasma Ratio ([1]; adult, chronic, 30 min): 12 ± 1%
restriction of transfer by the placenta [2]: ~70%
SMILES: CN/C(=N/CCSCc1nc[nH]c1C)NC#N [Cimetidine]
abcc1 expression, fold change chronic vs acute ([3]; brain cortex, E19): 1.00 fold
abcc1 expression, fold change chronic vs acute ([3]; brain cortex, P4): 1.11 fold
abcc1 expression, fold change chronic vs acute ([3]; brain cortex, adult): 1.20 fold
abcc1 expression, fold change chronic vs acute [3, 20]: 1.28 fold
abcc1 expression, fold change chronic vs acute [3, 21]: 0.96 fold
abcc1 expression, fold change chronic vs acute [3, 22]: 1.06 fold
abcc2 expression, fold change chronic vs acute ([4]; brain cortex, E19): 0.96 fold
abcc2 expression, fold change chronic vs acute ([4]; brain cortex, P4): ↓ 0.92 fold
abcc2 expression, fold change chronic vs acute ([4]; brain cortex, adult): 1.00 fold
abcc2 expression, fold change chronic vs acute [4, 20]: 1.19 fold
abcc2 expression, fold change chronic vs acute [4, 21]: 1.04 fold
abcc2 expression, fold change chronic vs acute [4, 22]: 0.86 fold
abcc2 expression, fold change chronic vs acute ([4]; placenta, E19): *10.07 fold
abcc3 expression, fold change chronic vs acute ([5]; brain cortex, E19): 0.81 fold
abcc3 expression, fold change chronic vs acute ([5]; brain cortex, P4): 1.12 fold
abcc3 expression, fold change chronic vs acute ([5]; brain cortex, adult): 1.18 fold
abcc3 expression, fold change chronic vs acute [5, 20]: 1.46 fold
abcc3 expression, fold change chronic vs acute [5, 21]: 1.05 fold
abcc3 expression, fold change chronic vs acute [5, 22]: 1.12 fold
abcc3 expression, fold change chronic vs acute ([5]; placenta, E19): 0.96 fold
abcc4 expression, fold change chronic vs acute ([6]; brain cortex, E19): 0.98 fold
abcc4 expression, fold change chronic vs acute ([6]; brain cortex, P4): 1.18 fold
abcc4 expression, fold change chronic vs acute ([6]; brain cortex, adult): 1.00 fold
abcc4 expression, fold change chronic vs acute [6, 20]: 1.17 fold
abcc4 expression, fold change chronic vs acute [6, 21]: 1.12 fold
abcc4 expression, fold change chronic vs acute [6, 22]: ↑ 1.49 fold
abcc4 expression, fold change chronic vs acute ([6]; placenta, E19): 0.69 fold
abcc5 expression, fold change chronic vs acute ([7]; brain cortex, E19): 0.97 fold
abcc5 expression, fold change chronic vs acute ([7]; brain cortex, P4): ↑ 1.24 fold
abcc5 expression, fold change chronic vs acute ([7]; brain cortex, P4, listed as cimetidine): 1.24 fold
abcc5 expression, fold change chronic vs acute ([7]; brain cortex, adult): 1.11 fold
abcc5 expression, fold change chronic vs acute [7, 20]: 1.19 fold
abcc5 expression, fold change chronic vs acute [7, 21]: 0.86 fold
abcc5 expression, fold change chronic vs acute [7, 22]: 1.21 fold
abcc5 expression, fold change chronic vs acute ([7]; placenta, E19): 1.14 fold
abcg2 expression, fold change chronic vs acute ([8]; brain cortex, E19): 0.80 fold
abcg2 expression, fold change chronic vs acute ([8]; brain cortex, P4): 1.11 fold
abcg2 expression, fold change chronic vs acute ([8]; brain cortex, adult): 0.98 fold
abcg2 expression, fold change chronic vs acute [8, 20]: 1.01 fold
abcg2 expression, fold change chronic vs acute [8, 21]: 0.73 fold
abcg2 expression, fold change chronic vs acute [8, 22]: 0.91 fold
abcg2 expression, fold change chronic vs acute ([8]; placenta, E19): 1.24 fold
abcb1a expression, fold change chronic vs acute ([9]; brain cortex, E19): 0.93 fold
abcb1a expression, fold change chronic vs acute ([9]; brain cortex, P4): ↑ 1.23 fold
abcb1a expression, fold change chronic vs acute ([9]; brain cortex, adult): 1.06 fold
abcb1a expression, fold change chronic vs acute [9, 20]: 1.73 fold
abcb1a expression, fold change chronic vs acute [9, 21]: 1.72 fold
abcb1a expression, fold change chronic vs acute [9, 22]: 1.06 fold
abcb1a expression, fold change chronic vs acute ([9]; placenta, E19): 0.86 fold
abcb1b expression, fold change chronic vs acute ([10]; brain cortex, E19): 1.09 fold
abcb1b expression, fold change chronic vs acute ([10]; brain cortex, P4): 1.03 fold
abcb1b expression, fold change chronic vs acute ([10]; brain cortex, adult): 0.87 fold
abcb1b expression, fold change chronic vs acute [10, 20]: 1.66 fold
abcb1b expression, fold change chronic vs acute [10, 21]: 1.00 fold
abcb1b expression, fold change chronic vs acute [10, 22]: 1.15 fold
abcb1b expression, fold change chronic vs acute ([10]; placenta, E19): 1.00 fold

SMILES: O=C[C@@H](O)[C@H](O)[C@@H](O)[C@@H](O)CO [L-Glucose, L-glucose]
Brain/Plasma Ratio [11]: very low
CSF/Plasma Ratio [11]: very low
Fetal/Maternal plasma concentration ratio, range [12]: (8.3 - 27.7) %
Fetal/Maternal plasma concentration ratio [12]: 16.7 ± 6.5%
Fetal/Maternal plasma concentration ratio ([12]; listed as L-glucose): 16.7%
